Experimental data published in patent US11219603B2, “Stable dosage form of etidronate-cytarabine conjugate, and use thereof” (MAXWELL BIOTECH GROUP LTD., priority 2015, dated 2022).

Assay: Hydrolysis rate constant with MgCl2 or CaCl2 as stabilizer
Format: physicochemical
Settings: for hydrolysis rate constant (K): in water
Text: The use of calcium chloride as a stabilizer against hydrolytic decomposition in both buffer solutions and water was also investigated; the hydrolysis rate constant was compared with the constant for MgCl2. […] If molar ratios were less than 2:1, the hydrolysis rate was lower for solutions containing MgCl2.

Compound: CC(O)(P(=O)(O)O)P(=O)(O)OP(=O)(O)OC[C@H]1O[C@@H](n2ccc(N)nc2=O)[C@@H](O)[C@@H]1O (stereo partly drawn) [MBC-11]
- slowdown in the hydrolysis reaction (divalent metal salts added to aqueous solution in molar ratio 2:1): 90%
- hydrolysis rate constant (K) (molar ratio CaCl2 to MBC-11 2:1): 0.0005
- hydrolysis rate constant (K) (molar ratio MgCl2 to MBC-11 2:1): 0.0005
